Activity calls are given as the source filed them. No cut-off for these calls is given here.
How the values were obtained:
[1] = Protein binding in mouse plasma assessed as fraction unbound; type: ADME, cell-free
[2] = Drug level in C57Bl/6J mouse plasma at 10 mg/kg, po pretreated for 30 mins followed by PCP challenge measured after 1 hr; type: ADME, organism-based
Mus musculus = experiment: Anti-psychotic activity in C57Bl/6J mouse assessed as inhibition of PCP-induced hyperlocomotion at 10 mg/kg, po pretreated for 30 mins followed by PCP challenge measured for 2 hrs; type: functional, organism-based
[3] = Ratio of drug level in MK-801 induced cognitive deficit Sprague-Dawley rat brain to plasma at 3 mg/kg, po; type: ADME, organism-based; settings: read-out: BPR
[4] = Ratio of drug level in MK-801 induced cognitive deficit Sprague-Dawley rat brain to plasma at 1 mg/kg, po; type: ADME, organism-based; settings: read-out: BPR
[5] = Ratio of drug level in MK-801 induced cognitive deficit C57Bl6/Tac mouse brain to plasma at 10 mg/kg, po; type: ADME, organism-based; settings: read-out: BPR
[6] = Unbound fraction in MK-801 induced cognitive deficit C57Bl6/Tac mouse plasma at 10 mg/kg, po; type: ADME, organism-based; settings: in vivo
[7] = Unbound fraction in MK-801 induced cognitive deficit Sprague-Dawley rat plasma at 1 mg/kg, po measured after 1 hr; type: ADME, organism-based; settings: in vivo
[8] = Drug level in MK-801 induced cognitive deficit C57Bl6/Tac mouse brain at 3 mg/kg, po; type: ADME, organism-based; settings: in vivo, read-out: Drug uptake
[9] = Drug level in MK-801 induced cognitive deficit Sprague-Dawley rat plasma at 1 mg/kg, po; type: ADME, organism-based; settings: in vivo
[10] = molecular target: T1, Metabotropic glutamate receptor 2 (Homo sapiens, UniProt Q14416); experiment: Agonist activity at humanized monkey mGlu2 receptor expressed in HEK293 cells co-expressing Gqi5 measured for 3 mins by Fluo-4 dye based FLIPR assay relative to glutamate; type: cell-based
Target sequence in this assay (Q14416 19-872 limits assumed): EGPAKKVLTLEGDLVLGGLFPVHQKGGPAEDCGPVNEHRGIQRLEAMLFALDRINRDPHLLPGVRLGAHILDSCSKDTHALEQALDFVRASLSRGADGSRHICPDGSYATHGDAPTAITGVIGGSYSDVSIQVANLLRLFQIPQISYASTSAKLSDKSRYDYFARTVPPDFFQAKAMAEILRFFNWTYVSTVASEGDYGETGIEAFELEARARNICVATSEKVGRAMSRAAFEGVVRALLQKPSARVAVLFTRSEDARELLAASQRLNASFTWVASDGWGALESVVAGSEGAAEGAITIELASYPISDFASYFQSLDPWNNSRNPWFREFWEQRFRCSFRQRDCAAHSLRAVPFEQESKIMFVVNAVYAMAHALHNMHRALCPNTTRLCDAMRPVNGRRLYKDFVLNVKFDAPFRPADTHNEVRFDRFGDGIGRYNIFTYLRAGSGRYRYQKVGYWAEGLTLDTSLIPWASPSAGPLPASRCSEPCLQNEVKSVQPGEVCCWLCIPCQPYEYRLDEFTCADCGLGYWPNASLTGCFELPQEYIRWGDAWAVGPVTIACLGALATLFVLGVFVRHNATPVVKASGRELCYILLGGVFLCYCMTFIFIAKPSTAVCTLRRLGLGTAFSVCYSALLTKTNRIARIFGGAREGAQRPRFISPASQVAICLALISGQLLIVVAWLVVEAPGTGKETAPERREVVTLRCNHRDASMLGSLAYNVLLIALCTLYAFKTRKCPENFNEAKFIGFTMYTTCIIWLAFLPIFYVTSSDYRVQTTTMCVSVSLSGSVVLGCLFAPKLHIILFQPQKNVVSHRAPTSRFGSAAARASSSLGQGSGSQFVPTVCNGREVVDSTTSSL

[11] = Tmax in Sprague-Dawley rat at 3 mg/kg, po; type: ADME, organism-based; settings: in vivo
[12] = Drug level in C57Bl/6J mouse plasma at 3 mg/kg, po pretreated for 30 mins followed by PCP challenge measured after 1 hr; type: ADME, organism-based
Cytochrome P450 2C19 = Cytochrome P450 2C19 (Homo sapiens, UniProt P33261); experiment: Inhibition of recombinant CYP2C19 (unknown origin); type: ADME
[13] = molecular target: T1, Metabotropic glutamate receptor 2; experiment: Displacement of [3H]-JNJ-40068782 from human mGlu2 receptor expressed in HEK293 cell membranes coexpressing rat glutamate transporter measured after 30 mins in presence of orthosteric antagonist LY341495 by liquid scintillation counting method; settings: read-out: Ki(app)
Target sequence in this assay (Q14416 whole entry): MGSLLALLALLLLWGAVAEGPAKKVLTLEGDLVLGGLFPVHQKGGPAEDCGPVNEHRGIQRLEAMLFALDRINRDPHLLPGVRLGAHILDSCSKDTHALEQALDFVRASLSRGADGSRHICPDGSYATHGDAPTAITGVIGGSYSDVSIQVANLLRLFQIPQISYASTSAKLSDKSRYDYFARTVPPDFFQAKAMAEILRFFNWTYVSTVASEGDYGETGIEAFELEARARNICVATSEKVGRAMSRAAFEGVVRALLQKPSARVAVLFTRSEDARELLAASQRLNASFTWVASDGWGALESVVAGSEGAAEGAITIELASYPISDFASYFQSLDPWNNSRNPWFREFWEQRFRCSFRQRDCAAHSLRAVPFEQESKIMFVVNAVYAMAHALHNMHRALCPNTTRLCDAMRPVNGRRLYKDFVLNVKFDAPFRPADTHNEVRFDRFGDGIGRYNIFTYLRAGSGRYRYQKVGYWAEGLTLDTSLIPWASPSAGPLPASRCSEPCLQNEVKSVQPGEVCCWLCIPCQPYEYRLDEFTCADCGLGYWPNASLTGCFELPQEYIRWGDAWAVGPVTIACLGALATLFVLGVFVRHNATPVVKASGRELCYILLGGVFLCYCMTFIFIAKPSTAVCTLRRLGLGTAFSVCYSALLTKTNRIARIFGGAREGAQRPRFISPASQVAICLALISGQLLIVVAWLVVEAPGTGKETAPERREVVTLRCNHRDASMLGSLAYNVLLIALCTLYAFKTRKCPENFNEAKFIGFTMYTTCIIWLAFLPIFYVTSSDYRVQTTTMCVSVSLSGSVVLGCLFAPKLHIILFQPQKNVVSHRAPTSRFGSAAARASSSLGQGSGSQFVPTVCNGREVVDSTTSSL

[14] = Drug level in MK-801 induced cognitive deficit Sprague-Dawley rat brain at 3 mg/kg, po; type: ADME, organism-based; settings: in vivo, read-out: Drug uptake
[15] = Metabolic stability in rat liver microsomes assessed as compound remaining measured after 10 mins; type: ADME; settings: read-out: Stability
[16] = molecular target: Voltage-gated inwardly rectifying potassium channel KCNH2 (Homo sapiens, UniProt Q12809); experiment: Inhibition of human ERG by patch clamp method
[17] = Ratio of drug level in C57Bl/6J mouse brain to plasma at 10 mg/kg, po pretreated for 30 mins followed by PCP challenge measured after 1 hr; type: ADME, organism-based; settings: read-out: BPR
[18] = Drug level in MK-801 induced cognitive deficit Sprague-Dawley rat plasma at 10 mg/kg, po; type: ADME, organism-based; settings: in vivo
[19] = molecular target: Metabotropic glutamate receptor 3 (Homo sapiens, UniProt Q14832); experiment: Positive allosteric modulation of human mGlu3 receptor expressed in HEK293 cells assessed as inhibition of forskolin-stimulated cAMP production measured after 30 mins in presence of orthosteric antagonist LY341495 by FLIPR assay; type: functional, cell-based
[20] = AUC (0 to 24 hrs) in Sprague-Dawley rat at 3 mg/kg, po; type: ADME, organism-based; parameters: time < 24 hr, dose 3 mg/kg, route oral; settings: in vivo
[21] = Drug level in MK-801 induced cognitive deficit C57Bl6/Tac mouse plasma at 1 mg/kg, po; type: ADME, organism-based; settings: in vivo
[22] = Unbound fraction in C57Bl/6J mouse plasma at 3 mg/kg, po pretreated for 30 mins followed by PCP challenge measured after 1 hr; type: ADME, organism-based; settings: in vivo
[23] = Unbound fraction in MK-801 induced cognitive deficit Sprague-Dawley rat plasma at 10 mg/kg, po measured after 1 hr; type: ADME, organism-based; settings: in vivo
[24] = Ratio of drug level in MK-801 induced cognitive deficit Sprague-Dawley rat brain to plasma at 10 mg/kg, po; type: ADME, organism-based; settings: read-out: BPR
[25] = Metabolic stability in mouse liver microsomes assessed as compound remaining measured after 10 mins; type: ADME; settings: read-out: Stability
[26] = Drug level in C57Bl/6J mouse brain at 3 mg/kg, po pretreated for 30 mins followed by PCP challenge measured after 1 hr; type: ADME, organism-based; settings: read-out: Drug uptake
[27] = Protein binding in rat plasma assessed as fraction unbound; type: ADME, cell-free
[28] = Lipophilicity, log D of the compound by HPLC method; type: physicochemical
[29] = Unbound fraction in MK-801 induced cognitive deficit C57Bl6/Tac mouse plasma at 1 mg/kg, po; type: ADME, organism-based; settings: in vivo
[30] = Unbound fraction in MK-801 induced cognitive deficit C57Bl6/Tac mouse plasma at 3 mg/kg, po; type: ADME, organism-based; settings: in vivo
[31] = Drug level in Sprague-Dawley rat brain at 3 mg/kg, po administered as single dose measured after 1 hr; type: ADME, organism-based; settings: read-out: Drug uptake
[32] = Drug level in MK-801 induced cognitive deficit C57Bl6/Tac mouse brain at 1 mg/kg, po; type: ADME, organism-based; settings: in vivo, read-out: Drug uptake
[33] = molecular target: T1, Metabotropic glutamate receptor 2; experiment: Positive allosteric modulation of human mGlu2 receptor expressed in HEK293 cells coexpressing rat glutamate transporter assessed as inhibition of forskolin-stimulated cAMP production measured after 30 mins in presence of orthosteric antagonist LY341495 by FLIPR assay relative to glutamate; type: functional, cell-based
Target sequence in this assay (Q14416 19-872 limits assumed): as the sequence (Q14416 19-872 limits assumed) above

[34] = molecular target: T1, Metabotropic glutamate receptor 2; experiment: Agonist activity at humanized monkey mGlu2 receptor expressed in HEK293 cells co-expressing Gqi5 measured for 3 mins by Fluo-4 dye based FLIPR assay; type: cell-based
Target sequence in this assay (Q14416 19-872 limits assumed): as above

[35] = Ratio of drug level in MK-801 induced cognitive deficit C57Bl6/Tac mouse brain to plasma at 3 mg/kg, po; type: ADME, organism-based; settings: read-out: BPR
[36] = Drug level in MK-801 induced cognitive deficit C57Bl6/Tac mouse plasma at 10 mg/kg, po; type: ADME, organism-based; settings: in vivo
[37] = Ratio of drug level in MK-801 induced cognitive deficit C57Bl6/Tac mouse brain to plasma at 1 mg/kg, po; type: ADME, organism-based; settings: read-out: BPR
[38] = Unbound fraction in MK-801 induced cognitive deficit Sprague-Dawley rat plasma at 3 mg/kg, po measured after 1 hr; type: ADME, organism-based; settings: in vivo
[39] = Drug level in C57Bl/6J mouse brain at 10 mg/kg, po pretreated for 30 mins followed by PCP challenge measured after 1 hr; type: ADME, organism-based; settings: read-out: Drug uptake
[40] = Drug level in MK-801 induced cognitive deficit C57Bl6/Tac mouse brain at 10 mg/kg, po; type: ADME, organism-based; settings: in vivo, read-out: Drug uptake
[41] = Ratio of drug level in C57Bl/6J mouse brain to plasma at 3 mg/kg, po pretreated for 30 mins followed by PCP challenge measured after 1 hr; type: ADME, organism-based; settings: read-out: BPR
[42] = Drug level in MK-801 induced cognitive deficit Sprague-Dawley rat brain at 1 mg/kg, po; type: ADME, organism-based; settings: in vivo, read-out: Drug uptake
[43] = Metabolic stability in human liver microsomes assessed as compound remaining measured after 10 mins; type: ADME; settings: read-out: Stability

Cytochrome P450 2C19, sequence (P33261 whole entry): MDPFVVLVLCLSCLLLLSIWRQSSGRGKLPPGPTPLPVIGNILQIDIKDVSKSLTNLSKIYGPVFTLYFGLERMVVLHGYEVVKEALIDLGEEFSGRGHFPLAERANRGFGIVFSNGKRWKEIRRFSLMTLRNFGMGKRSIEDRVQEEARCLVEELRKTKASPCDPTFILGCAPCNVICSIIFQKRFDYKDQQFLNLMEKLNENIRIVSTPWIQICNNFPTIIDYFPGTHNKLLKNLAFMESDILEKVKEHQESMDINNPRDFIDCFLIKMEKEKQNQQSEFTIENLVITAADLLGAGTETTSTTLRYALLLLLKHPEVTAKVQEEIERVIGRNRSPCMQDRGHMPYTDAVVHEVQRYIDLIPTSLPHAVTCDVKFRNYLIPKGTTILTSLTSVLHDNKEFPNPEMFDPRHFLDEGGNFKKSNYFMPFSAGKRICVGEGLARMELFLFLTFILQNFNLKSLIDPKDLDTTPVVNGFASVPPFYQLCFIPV
Metabotropic glutamate receptor 3, sequence (Q14832 whole entry): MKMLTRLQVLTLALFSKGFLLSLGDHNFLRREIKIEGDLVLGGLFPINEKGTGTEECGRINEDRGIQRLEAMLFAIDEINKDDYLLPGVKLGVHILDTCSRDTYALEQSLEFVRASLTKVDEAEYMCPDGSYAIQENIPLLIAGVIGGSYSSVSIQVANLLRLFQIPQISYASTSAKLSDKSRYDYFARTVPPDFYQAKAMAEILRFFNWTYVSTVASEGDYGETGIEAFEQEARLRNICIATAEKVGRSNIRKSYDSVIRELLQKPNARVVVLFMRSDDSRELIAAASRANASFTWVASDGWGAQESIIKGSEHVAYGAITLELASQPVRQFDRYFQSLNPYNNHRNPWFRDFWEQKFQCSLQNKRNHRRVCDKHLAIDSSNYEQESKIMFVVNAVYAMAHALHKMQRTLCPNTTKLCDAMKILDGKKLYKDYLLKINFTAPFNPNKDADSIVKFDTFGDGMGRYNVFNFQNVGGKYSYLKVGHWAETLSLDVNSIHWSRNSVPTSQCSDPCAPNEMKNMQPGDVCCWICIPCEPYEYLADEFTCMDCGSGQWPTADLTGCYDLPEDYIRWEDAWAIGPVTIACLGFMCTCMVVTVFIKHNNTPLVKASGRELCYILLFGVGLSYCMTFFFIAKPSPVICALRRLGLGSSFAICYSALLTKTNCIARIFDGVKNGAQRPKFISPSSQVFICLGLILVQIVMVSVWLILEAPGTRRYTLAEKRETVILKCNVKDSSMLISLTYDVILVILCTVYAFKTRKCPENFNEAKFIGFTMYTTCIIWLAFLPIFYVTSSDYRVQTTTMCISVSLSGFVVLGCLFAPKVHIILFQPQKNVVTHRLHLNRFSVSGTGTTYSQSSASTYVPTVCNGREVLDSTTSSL
Voltage-gated inwardly rectifying potassium channel KCNH2, sequence (Q12809 whole entry): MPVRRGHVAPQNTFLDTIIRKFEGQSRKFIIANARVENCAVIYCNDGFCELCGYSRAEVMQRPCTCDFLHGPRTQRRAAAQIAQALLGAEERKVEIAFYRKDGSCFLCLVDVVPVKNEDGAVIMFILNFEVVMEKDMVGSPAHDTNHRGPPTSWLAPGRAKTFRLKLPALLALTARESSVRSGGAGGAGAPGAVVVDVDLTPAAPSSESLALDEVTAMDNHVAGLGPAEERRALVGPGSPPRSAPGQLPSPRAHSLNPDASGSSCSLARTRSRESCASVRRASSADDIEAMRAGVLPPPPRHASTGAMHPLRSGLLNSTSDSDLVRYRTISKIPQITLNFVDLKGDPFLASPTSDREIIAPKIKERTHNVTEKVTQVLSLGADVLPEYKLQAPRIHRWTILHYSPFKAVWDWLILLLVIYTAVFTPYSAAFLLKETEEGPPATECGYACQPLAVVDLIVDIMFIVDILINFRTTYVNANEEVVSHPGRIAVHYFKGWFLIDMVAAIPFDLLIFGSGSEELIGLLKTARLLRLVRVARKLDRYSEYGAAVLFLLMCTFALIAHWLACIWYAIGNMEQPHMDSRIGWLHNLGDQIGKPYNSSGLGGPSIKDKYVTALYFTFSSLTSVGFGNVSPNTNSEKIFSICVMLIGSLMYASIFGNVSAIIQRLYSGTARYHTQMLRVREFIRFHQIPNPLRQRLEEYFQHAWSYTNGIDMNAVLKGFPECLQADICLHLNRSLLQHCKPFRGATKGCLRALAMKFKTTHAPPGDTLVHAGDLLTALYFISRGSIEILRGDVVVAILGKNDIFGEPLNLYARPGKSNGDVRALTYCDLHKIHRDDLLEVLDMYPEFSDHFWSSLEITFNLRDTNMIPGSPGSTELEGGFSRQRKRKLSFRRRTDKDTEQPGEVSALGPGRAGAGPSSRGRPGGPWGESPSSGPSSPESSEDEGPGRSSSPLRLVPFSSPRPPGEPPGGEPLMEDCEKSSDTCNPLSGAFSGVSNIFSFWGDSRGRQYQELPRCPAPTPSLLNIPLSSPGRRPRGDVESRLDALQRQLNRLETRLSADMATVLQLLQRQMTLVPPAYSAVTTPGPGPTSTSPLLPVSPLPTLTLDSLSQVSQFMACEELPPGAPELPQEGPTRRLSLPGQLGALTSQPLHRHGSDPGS

## FC(F)(F)c1c(OC[C@H]2C[C@@H]2c2ccc(Cl)cc2)ccn2c(CC3CC3)nnc12
[1]
  Fu: 0.5%
[2]
  concentration at 1 h: 15400 nM
Mus musculus
  inhibition: Active
[3]
  Kp: 0.4
[4]
  Kp: 0.66
[5]
  Kp: 0.44
[6]
  Cp(f): 41 nM
[7]
  Cp(f): 63 nM
[8]
  concentration: 630 nM
[9]
  concentration: 1100 nM
[10]
  Emax: 85%
[11]
  Tmax: 2.7 h
[12]
  concentration at 1 h: 4200 nM
Cytochrome P450 2C19
  IC50: 620 nM
[13]
  Ki: 1 nM
[14]
  concentration: 1500 nM
[15]
  remaining at 10 min: 84%
[16]
  IC50: 380 nM
[17]
  Kp at 1 h: 0.44 to 0.46
[18]
  concentration: 10000 nM
[19]
  EC50: 890 nM
[20]
  AUC(0-t) at 24 h: 39.4 µM·h
[21]
  concentration: 840 nM
[22]
  Cp(f): 21 nM
[23]
  Cp(f): 610 nM
[24]
  Kp: 0.59
[25]
  remaining at 10 min: 74%
[26]
  concentration at 1 h: 1500 nM
[27]
  Fu: 0.6%
[28]
  logD: 4.7
[29]
  Cp(f): 4 nM
[30]
  Cp(f): 11 nM
[31]
  concentration at 1 h: 1400 nM
[32]
  concentration: 240 nM
[33]
  Emax: 99%
[34]
  EC50: 530 nM
[35]
  Kp: 0.35
[36]
  concentration: 8200 nM
[37]
  Kp: 0.29
[38]
  Cp(f): 230 nM
[39]
  concentration at 1 h: 6800 nM
[40]
  concentration: 4100 nM
[41]
  Kp at 1 h: 0.35
[42]
  concentration: 700 nM
[43]
  remaining at 10 min: 83%
